Data as given in patent US20190352288A1, “MATRIX METALLOPROTEINASE (MMP) INHIBITORS AND METHODS OF USE THEREOF” (Foresee Pharmaceuticals Co., Ltd., priority 2018, published 2019).
pIC50: −log10 of the molar value.

What was measured:
Type in all cases: biochemical
[1] = target: T1, recombinant human MMP-12 catalytic domain (Homo sapiens, UniProt P39900); assay: MMP-12 inhibitory assay (fluorogenic substrate cleavage); conditions: readout at 30 minutes, 37° C., Table 1
T1 construct: recombinant human MMP-12 catalytic domain; purchased Enzo BML-SE138
Description: (§1) The inhibitory effect of compounds on the rate of cleaving fluorogenic MMP substrate (Enzo, BML-P128) by recombinant human MMP-12 catalytic domain (Enzo, BML-SE138) was carried out by methods known in the art. Briefly, to each well of a 96-well black opaque plate, all the reagents were sequentially added by pipetting, and the final reaction contained 4 nM of recombinant human MMP-12 catalytic domain, 4 μM of fluorogenic MMP substrate, and various concentrations (0.15 nM to 10,000 nM) of tested compound dilutions in HEPES buffer (pH 7.5) containing 10 mM of CaCl2), 0.01% Brij® 35 (polyoxyethylene (23) lauryl ether), and 0.1 mg/ml of BSA.
(§2) The enzyme and compounds were pre-incubated on a shaker to mix in wells. After an hour of mixing, fluorogenic substrate was added to each well. Reaction without enzyme was used as a blank control in the plate. The plate was then fed into a plate reader to measure fluorescence intensity at Excitation/Emission wavelengths of 340 nm/440 nm every 10 mins for at least 1 hour at 37° C. The IC50 of each compound in MMP-12 inhibition was determined by using a readout obtained at time point 30 minutes.

recombinant human MMP-1 = target: T2, recombinant human MMP-1 (Homo sapiens, UniProt P03956); assay: MMP selectivity assay, MMP-1; conditions: Table 2 selectivity profile
T2 sequence (P03956 100-469): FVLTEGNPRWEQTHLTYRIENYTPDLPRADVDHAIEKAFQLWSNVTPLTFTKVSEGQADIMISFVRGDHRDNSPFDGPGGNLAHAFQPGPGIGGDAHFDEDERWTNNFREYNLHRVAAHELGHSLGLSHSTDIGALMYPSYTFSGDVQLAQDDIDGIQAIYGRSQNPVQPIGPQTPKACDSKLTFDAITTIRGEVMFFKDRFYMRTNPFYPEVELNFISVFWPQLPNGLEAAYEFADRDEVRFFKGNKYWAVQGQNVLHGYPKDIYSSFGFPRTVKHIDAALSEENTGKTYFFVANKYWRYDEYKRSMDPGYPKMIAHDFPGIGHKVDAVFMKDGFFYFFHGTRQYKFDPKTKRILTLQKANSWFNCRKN
Description: as §1, §2
(§3) The MMP selectivity assay was performed by using other recombinant human MMPs, including MMP-1, MMP-2, MMP-3, MMP-7, MMP-8, MMP-9, MMP-10, MMP-13, and MMP-14. The IC50 of the compounds for the other recombinant human MMPs was determined as described above in Example 1, and are shown in Table 2.

recombinant human MMP-2 = target: T3, recombinant human MMP-2 (Homo sapiens, UniProt P08253); assay: MMP selectivity assay, MMP-2; conditions: Table 2 selectivity profile
T3 sequence (P08253 110-660): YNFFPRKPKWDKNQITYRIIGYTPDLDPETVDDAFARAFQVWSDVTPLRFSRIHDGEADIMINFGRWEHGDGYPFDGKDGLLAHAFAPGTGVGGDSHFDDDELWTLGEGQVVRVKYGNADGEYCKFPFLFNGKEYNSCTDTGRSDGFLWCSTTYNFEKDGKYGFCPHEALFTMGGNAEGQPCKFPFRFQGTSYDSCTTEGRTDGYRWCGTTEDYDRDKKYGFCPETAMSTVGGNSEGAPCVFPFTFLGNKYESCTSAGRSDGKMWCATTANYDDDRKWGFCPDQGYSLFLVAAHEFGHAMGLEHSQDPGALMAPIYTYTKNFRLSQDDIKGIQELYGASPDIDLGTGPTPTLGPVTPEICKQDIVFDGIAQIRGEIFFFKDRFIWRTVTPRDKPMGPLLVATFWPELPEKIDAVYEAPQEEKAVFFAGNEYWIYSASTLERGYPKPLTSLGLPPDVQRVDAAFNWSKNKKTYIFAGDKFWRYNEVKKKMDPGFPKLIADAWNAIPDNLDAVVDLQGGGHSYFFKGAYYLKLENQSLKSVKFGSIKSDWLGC
Description: as §1, §2, §3

recombinant human MMP-8 = recombinant human MMP-8 (Homo sapiens, UniProt P22894); assay: MMP selectivity assay, MMP-8; conditions: Table 2 selectivity profile
Description: as §1, §2, §3

recombinant human MMP-13 = recombinant human MMP-13 (Homo sapiens, UniProt P45452); assay: MMP selectivity assay, MMP-13; conditions: Table 2 selectivity profile
Description: as §1, §2, §3

Sequence of recombinant human MMP-8 (P22894 101-467): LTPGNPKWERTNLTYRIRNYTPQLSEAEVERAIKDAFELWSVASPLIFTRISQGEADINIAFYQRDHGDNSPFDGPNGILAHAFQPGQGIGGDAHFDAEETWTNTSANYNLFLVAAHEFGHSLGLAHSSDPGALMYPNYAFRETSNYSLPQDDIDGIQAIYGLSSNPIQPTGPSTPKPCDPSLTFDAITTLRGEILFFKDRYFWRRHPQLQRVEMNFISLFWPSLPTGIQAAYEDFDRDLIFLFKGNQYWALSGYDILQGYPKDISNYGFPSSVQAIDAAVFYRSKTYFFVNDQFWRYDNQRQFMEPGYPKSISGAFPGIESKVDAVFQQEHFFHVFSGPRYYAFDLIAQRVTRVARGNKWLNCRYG
T1 sequence (P39900 106-268 limits assumed): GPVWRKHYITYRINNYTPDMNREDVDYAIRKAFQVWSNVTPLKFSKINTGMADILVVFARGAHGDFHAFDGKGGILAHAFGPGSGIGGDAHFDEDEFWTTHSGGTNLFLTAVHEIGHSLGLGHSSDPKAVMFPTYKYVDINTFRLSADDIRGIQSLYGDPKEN

- pIC50 [1]: > 8.00
- pIC50 (recombinant human MMP-1): < 5.00
- pIC50 (recombinant human MMP-2): 6.00 to 7.00
- pIC50 (recombinant human MMP-8): 5.00 to 6.00
- pIC50 (recombinant human MMP-13): 5.00 to 6.00
SMILES: Cc1cc(COc2ccc(Sc3ccncc3C3NC(=O)NC3=O)cc2)ccn1 (centres unmarked) [PC-16]
